Columns and labels:
prickly sida = test: Test F preemergence test; assay type: in vivo, Sida spinosa; settings: scale 0 to 100
Summary of the method: (§1)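 Compounds in a non-phytotoxic solvent formulation with surfactant were applied before emergence after sowing, or, for sugarcane, also postemergence. Evaluation was visual, against controls, after 14 to 21 greenhouse days.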

bermudagrass = test: Test F preemergence test; assay type: in vivo, Cynodon dactylon; settings: scale 0 to 100
Summary of the method: as §1

kochia = test: Test C pre-/postemergence test; assay type: in vivo, Kochia scoparia; settings: for Plant response rating, Kochia: scale 0 to 100, 0 no effect, 100 complete control
Summary of the method: (§2)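 Seeds were planted and treated preemergence with test chemical in a non-phytotoxic solvent mixture containing surfactant. Postemergence applications of the same formulation went onto plants 2 to 18 cm tall (1- to 4-leaf stage). A dash marks no test result.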

green foxtail = test: Test F preemergence test; assay type: in vivo, Setaria viridis; settings: scale 0 to 100
Summary of the method: as §1

itchgrass = test: Test F preemergence test; assay type: in vivo, Rottboellia cochinchinensis; settings: scale 0 to 100
Summary of the method: as §1

pitted morningglory = test: Test F preemergence test; assay type: in vivo, Ipomoea lacunosa; settings: scale 0 to 100
Summary of the method: as §1

purple nutsedge = test: Test F preemergence test; assay type: in vivo, Cyperus rotundus; settings: scale 0 to 100
Summary of the method: as §1

naked crabgrass = test: Test F preemergence test; assay type: in vivo, Digitaria nuda; settings: scale 0 to 100
Summary of the method: as §1

yellow nutsedge = test: Test C pre-/postemergence test; assay type: in vivo, Cyperus esculentus; settings: for Plant response rating, Nutsedge, Yellow: scale 0 to 100, 0 no effect, 100 complete control
Summary of the method: as §2

common ragweed [1] = test: Test C pre-/postemergence test; assay type: in vivo, Ambrosia elation; settings: for Plant response rating, Ragweed: scale 0 to 100, 0 no effect, 100 complete control
Summary of the method: as §2

goosegrass = test: Test F preemergence test; assay type: in vivo, Eleusine indica; settings: scale 0 to 100
Summary of the method: as §1

crabgrass = test: Test A pre-/postemergence greenhouse test; assay type: in vivo, Digitaria sanguinalis; settings: for Crabgrass, Large plant response rating: 0 to 100 scale
Summary of the method: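 Seeds sown in a loam soil–sand blend got a preemergence directed soil spray of compound in a non-phytotoxic solvent mixture containing surfactant. Postemergence sprays of the same formulation went at the same time onto plants 2–10 cm tall at the one- to two-leaf stage. Injury was scored visually against untreated controls after about ten days in the greenhouse.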

common ragweed [2] = test: Test F preemergence test; assay type: in vivo, Ambrosia elation; settings: scale 0 to 100
Summary of the method: as §1

broadleaf signalgrass = test: Test F preemergence test; assay type: in vivo, Brachiaria platyphylla; settings: scale 0 to 100
Summary of the method: as §1

[3] = 31 g ai/ha, Preemergence, scale 0 to 100
[4] = 62 g ai/ha, preemergence, scale 0 (no effect) to 100 (complete control)
[5] = preemergence, 125 g ai/ha, scale 0 (no effect) to 100 (complete control)

## CC(c1c(C(F)(F)F)nn(C)c1OC(F)F)S(=O)(=O)c1cccc[n+]1[O-] (centres unmarked) [Compound 5]
Prickly sida; 8 g ai/ha, preemergence
  Plant response rating, Prickly Sida: 0
Prickly sida; 62 g ai/ha, Preemergence
  Prickly Sida plant response rating: 100
Prickly sida; Preemergence, 16 g ai/ha
  Plant response rating, Prickly Sida: 50
Prickly sida; Preemergence, 31 g ai/ha
  Plant response rating, Prickly Sida: 100
bermudagrass; 8 g ai/ha, preemergence
  Plant response rating, Bermudagrass: 25
bermudagrass; 62 g ai/ha, Preemergence
  Bermudagrass plant response rating: 100
bermudagrass; Preemergence, 16 g ai/ha
  Plant response rating, Bermudagrass: 50
bermudagrass; Preemergence, 31 g ai/ha
  Plant response rating, Bermudagrass: 100
kochia; [3]
  Kochia plant response rating: 80
kochia; [4]
  Kochia plant response rating: 100
kochia; Postemergence, 31 g ai/ha
  Plant response rating (0 to 100), Kochia: 0
kochia; Postemergence, 62 g ai/ha
  Plant response rating, Kochia: 0
kochia; Postemergence, 125 g ai/ha
  Plant response rating, Kochia: 0
kochia; Postemergence, 250 g ai/ha
  Plant response rating, Kochia: 0
kochia; Preemergence, 250 g ai/ha
  Plant response rating (0 to 100), Kochia: 100
kochia; [5]
  Kochia plant response rating: 100
Green foxtail; 8 g ai/ha, preemergence
  Plant response rating, Foxtail, Green: 0
Green foxtail; 62 g ai/ha, Preemergence
  Foxtail, Green plant response rating: 90
Green foxtail; Preemergence, 16 g ai/ha
  Plant response rating, Foxtail, Green: 30
Green foxtail; Preemergence, 31 g ai/ha
  Plant response rating, Foxtail, Green: 70
itchgrass; 8 g ai/ha, preemergence
  Plant response rating, Itchgrass: 10
itchgrass; 62 g ai/ha, Preemergence
  Itchgrass plant response rating: 90
itchgrass; Preemergence, 16 g ai/ha
  Plant response rating, Itchgrass: 25
itchgrass; Preemergence, 31 g ai/ha
  Plant response rating, Itchgrass: 35
Pitted morningglory; 8 g ai/ha, preemergence
  Plant response rating, Morningglory: 0
Pitted morningglory; 62 g ai/ha, Preemergence
  Morningglory plant response rating: 80
Pitted morningglory; Preemergence, 16 g ai/ha
  Plant response rating, Morningglory: 50
Pitted morningglory; Preemergence, 31 g ai/ha
  Plant response rating, Morningglory: 50
Purple nutsedge; 8 g ai/ha, preemergence
  Plant response rating, Purple Nutsedge: 30
Purple nutsedge; 62 g ai/ha, Preemergence
  Purple Nutsedge plant response rating: 90
Purple nutsedge; Preemergence, 16 g ai/ha
  Plant response rating, Purple Nutsedge: 60
Purple nutsedge; Preemergence, 31 g ai/ha
  Plant response rating, Purple Nutsedge: 75
Naked crabgrass; 8 g ai/ha, preemergence
  Plant response rating, Crabgrass, Naked: 60
Naked crabgrass; 62 g ai/ha, Preemergence
  Crabgrass, Naked plant response rating: 100
Naked crabgrass; Preemergence, 16 g ai/ha
  Plant response rating, Crabgrass, Naked: 95
Naked crabgrass; Preemergence, 31 g ai/ha
  Plant response rating, Crabgrass, Naked: 100
Yellow nutsedge; [3]
  Nutsedge, Yellow plant response rating: 80
Yellow nutsedge; [4]
  Nutsedge, Yellow plant response rating: 95
Yellow nutsedge; Postemergence, 31 g ai/ha
  Plant response rating (0 to 100), Nutsedge, Yellow: 0
Yellow nutsedge; Postemergence, 62 g ai/ha
  Plant response rating, Nutsedge, Yellow: 0
Yellow nutsedge; Postemergence, 125 g ai/ha
  Plant response rating, Nutsedge, Yellow: 0
Yellow nutsedge; Postemergence, 250 g ai/ha
  Plant response rating, Nutsedge, Yellow: 10
Yellow nutsedge; Preemergence, 250 g ai/ha
  Plant response rating (0 to 100), Nutsedge, Yellow: 100
Yellow nutsedge; [5]
  Nutsedge, Yellow plant response rating: 100
Common ragweed [1]; [3]
  Ragweed plant response rating: 85
Common ragweed [1]; [4]
  Ragweed plant response rating: 85
Common ragweed [1]; Postemergence, 31 g ai/ha
  Plant response rating (0 to 100), Ragweed: 0
Common ragweed [1]; Postemergence, 62 g ai/ha
  Plant response rating (0 to 100), Ragweed: 5
Common ragweed [1]; Postemergence, 125 g ai/ha
  Plant response rating, Ragweed: 5
Common ragweed [1]; Postemergence, 250 g ai/ha
  Plant response rating, Ragweed: 55
Common ragweed [1]; Preemergence, 250 g ai/ha
  Plant response rating (0 to 100), Ragweed: 100
Common ragweed [1]; [5]
  Ragweed plant response rating: 100
goosegrass; 8 g ai/ha, preemergence
  Plant response rating, Goosegrass: 10
goosegrass; 62 g ai/ha, Preemergence
  Goosegrass plant response rating: 100
goosegrass; Preemergence, 16 g ai/ha
  Plant response rating, Goosegrass: 85
goosegrass; Preemergence, 31 g ai/ha
  Plant response rating, Goosegrass: 90
crabgrass; Postemergence, 125 g ai/ha, 0 is no effect, 100 is complete control
  Crabgrass, Large plant response rating: 80
crabgrass; Postemergence, 500 g ai/ha, 0 is no effect, 100 is complete control
  Crabgrass, Large plant response rating: 90
crabgrass; Preemergence, 125 g ai/ha, 0 no effect, 100 complete control
  Crabgrass, Large plant response rating: 80
crabgrass; Preemergence, 500 g ai/ha, 0 to 100 scale where 0 is no effect and 100 is complete control
  Plant response rating, Crabgrass, Large: 100
Common ragweed [2]; 8 g ai/ha, preemergence
  Plant response rating, Ragweed: 50
Common ragweed [2]; 62 g ai/ha, Preemergence
  Ragweed plant response rating: 100
Common ragweed [2]; Preemergence, 16 g ai/ha
  Plant response rating, Ragweed: 65
Common ragweed [2]; Preemergence, 31 g ai/ha
  Plant response rating, Ragweed: 75
Broadleaf signalgrass; 8 g ai/ha, preemergence
  Plant response rating, Signalgrass: 0
Broadleaf signalgrass; 16 g ai/ha, preemergence
  Plant response rating, Signalgrass: 30
Broadleaf signalgrass; 62 g ai/ha, Preemergence
  Signalgrass plant response rating: 75
Broadleaf signalgrass; Preemergence, 31 g ai/ha
  Plant response rating, Signalgrass: 35
